Results on 19 compounds are retold here after patent US20230365558A1, “TETRAHYDROISOQUINOLINE DERIVATIVE AND USE THEREOF” (MEDSHINE DISCOVERY INC., priority 2020, published 2023).

Structures are written as SMILES. Read-outs that look alike come from different tables or passages of the source.

Data set [1] is described as follows: Pharmacokinetic evaluation in CD-1 mice. Particulars: for Clearance rate CL / Concentration integral AUC / Half-life T1/2 / Bioavailability F: CD-1 mice; for AUC / clearance / half-life / bioavailability: male, CD-1, mouse, in vivo. Here is the method:
Experimental objective: To study the pharmacokinetic parameters of the compounds in CD-1 mice
Animal experimental design: Male CD-1 mice (28.08 to 29.01 g, 6 to 7 weeks old), purchased from Shanghai Family Planning Research Institute, n=2/group, 4 mice in total; blood collection time points (h): 0.083 (intravenous injection only), 0.25 (intragastric administration only), 0.5, 1, 2, 4, 8, 10 and 24; compound dose by tail vein injection: 1 mg/kg; single dose by intragastric administration: 5 mg/kg; intravenous and intragastric administration vehicles: 20% N,N-dimethylacetamide aqueous solution, 20% hydroxypropyl-β-cyclodextrin aqueous solution, 5% DMSO/50% PEG400/45% water for injection or 10% Solutol/30% PEG400/60% water for injection. All animals had free access to water during the experiment, fasted overnight before administration, and resumed food supply 4 hours after administration. The entire animal experiment complied with the Institutional Animal Care and Use Committee (IACUC) animal welfare.
Sample collection and storage: After administration, approximately 0.03 mL of blood was collected from the saphenous vein of the mouse at each time point into a pre-frozen commercial EDTA-K2 tube, and placed on wet ice until centrifugation. Blood samples were centrifuged at 4° C., 3,200 g for 10 min. Plasma was collected separately, transferred to a pre-labeled 96-well plate, fast frozen on dry ice, and stored at −70±10° C. until LC-MS/MS analysis.
Pre-treatment of plasma samples: 3 μL of unknown, standard curve, QC, diluted QC and single and double blank samples were taken and placed in 1.5 mL tubes, and 60 μL of internal standard solution (internal standard: Labetalol 100 ng/mL acetonitrile solution, double blank with the same volume of pure acetonitrile) was added. The samples were vortexed for at least 15 seconds, and centrifuged at 4° C., 12,000 g for 15 min. 50 μL of the supernatant was taken and placed on a clean 96-well plate, and 200 μL of 70% acetonitrile was added. The plate was vortex at 800 rpm for 10 min, and centrifuged at 4° C., 3,220 g for 5 min. 2.0 μL of the supernatant was taken for LC-MS/MS analysis. 10-fold sample dilution procedure: 2 μL of the sample was added to 18 μL of blank matrix; 2-fold sample dilution procedure: 2 μL of the sample was added to 2 μL of blank matrix. Plasma was processed in the same manner as undiluted samples. The linear range was 4.00 to 6000 nM. Plasma concentrations would be analyzed with Triple Quad 6500 Plus, and pharmacokinetic parameters would be calculated with Phoenix WinNonlin 6.3.

For the next data set, the target named is PRMT5 enzyme (Homo sapiens (Human), UniProt O14744). The data set is described as follows: PRMT5 enzyme inhibitory activity assay (LANCE Ultra TR-FRET). The format is biochemical. Here is the method: Experimental objective: To test the inhibitory effect of compounds on PRMT5 enzyme activity
PRMT5 enzyme, sequence (O14744 whole entry): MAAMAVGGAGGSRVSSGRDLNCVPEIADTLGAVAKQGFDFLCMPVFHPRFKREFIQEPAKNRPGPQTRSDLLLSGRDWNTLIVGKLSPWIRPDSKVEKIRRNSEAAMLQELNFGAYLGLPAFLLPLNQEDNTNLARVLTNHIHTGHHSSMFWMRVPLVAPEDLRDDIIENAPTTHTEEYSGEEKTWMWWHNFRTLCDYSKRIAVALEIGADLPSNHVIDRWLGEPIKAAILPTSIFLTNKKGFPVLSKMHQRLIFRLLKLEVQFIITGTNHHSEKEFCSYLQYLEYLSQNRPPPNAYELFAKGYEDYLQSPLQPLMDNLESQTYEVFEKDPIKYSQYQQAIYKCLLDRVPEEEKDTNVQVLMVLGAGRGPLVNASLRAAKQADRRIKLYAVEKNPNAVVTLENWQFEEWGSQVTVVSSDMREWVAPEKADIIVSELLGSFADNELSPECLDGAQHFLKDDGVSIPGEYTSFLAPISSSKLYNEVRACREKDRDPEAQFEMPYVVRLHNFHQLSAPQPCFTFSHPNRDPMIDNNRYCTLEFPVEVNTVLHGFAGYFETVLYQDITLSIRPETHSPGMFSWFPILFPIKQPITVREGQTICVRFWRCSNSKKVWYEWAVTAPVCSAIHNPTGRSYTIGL
PRMT5 enzyme, sequence (Q9BQA1 whole entry partner): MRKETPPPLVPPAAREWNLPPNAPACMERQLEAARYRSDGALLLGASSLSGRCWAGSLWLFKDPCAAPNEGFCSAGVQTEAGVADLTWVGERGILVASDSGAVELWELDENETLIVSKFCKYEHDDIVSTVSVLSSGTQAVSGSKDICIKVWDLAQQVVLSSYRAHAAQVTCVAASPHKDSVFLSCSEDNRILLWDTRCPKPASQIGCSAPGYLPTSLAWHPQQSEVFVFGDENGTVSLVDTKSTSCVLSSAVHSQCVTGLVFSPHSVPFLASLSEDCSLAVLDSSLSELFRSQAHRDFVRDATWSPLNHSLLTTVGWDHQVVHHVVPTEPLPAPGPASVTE
Experimental materials: PRMT5 enzyme
The plate was incubated at 25° C. for 30 min, then added with substrate, and reacted at 25° C. for 90 min. After 90 min, the detection reagent was added to the 384-well plate using PerkinElmer LANCE Ultra TR-FRET standard method to combine with the enzyme-substrate reaction product. […] Raw data were used to calculate the inhibition rate of the test compounds using the following equation: […]
(§1) The inhibition rates were imported into Excel separately to calculate the inhibition rates of compounds at different concentrations, and then XLfit software was used to plot inhibition curves and calculate relevant parameters, including minimum inhibition rate, maximum inhibition rate and IC50.
On the technique in general: Time-resolved FRET reads energy transfer from a long-lived donor to a nearby acceptor.

The test system of data set [2] is Z-138 non-Hodgkin's lymphoma cells. The data set is described as follows: In vitro anti-proliferation assay of Z-138 cells (CellTiter-Glo, 6 days). To be noted: read-out: IC50 (nM), in vitro anti-proliferative activity on Z-138 tumor cells. The format is cell-based, human. Here is the method: The plate was incubated at 37° C., CO2 and 100% relative humidity for 6 days. Samples were processed using Promega CellTiter-Glo Luminescent Cell Viability Assay Kit (Promega-G7571) standard method, and the luminescent signal was detected on a TECAN Spark®10M plate reader. Raw data were used to calculate the inhibition rate of the test compounds using the following equation: […]
as §1
A general note: Cellular ATP, detected with luciferase, serves as a proxy for viable cell number.

Setting [3] is: injection administration (1 mg/kg).

Turning to `O=C(NC[C@H](O)CN1CCc2ccccc2C1)c1ccc2c(c1)NC(=O)C1(CCOCC1)O2` [Compound 4], in data set [1] (setting [3]), the “Clearance rate CL” value was found to be 63.3 mL/min/kg, the “Concentration integral AUC” value was 0.583 µM·h and the “Half-life T1/2” value amounted to 16.2 min. In data set [1] (oral administration (5 mg/kg)), the “Bioavailability F” value is on record as 21.5% and the “Concentration integral AUC” value was 0.626 µM·h. Inhibition against PRMT5 enzyme was half-maximal at 22 nM (IC50).
`O=C(NC[C@H](O)CN1CCc2ccccc2C1)c1cnc2c(c1)NC(=O)C1(CCC1)O2` [Compound 6]: in data set [1] (setting [3]), the “Clearance rate CL” value came to 42.1 mL/min/kg, the “Concentration integral AUC” value is 0.944 µM·h and the “Half-life T1/2” value came to 14.4 min. For the same compound, in data set [1] (oral administration (5 mg/kg)), the “Bioavailability F” value was 16.4% and the “Concentration integral AUC” value is 0.773 µM·h. Moreover, in data set [2], the IC50 was determined as 6 nM.
Consider `O=C(NC[C@H](O)CN1CCc2ccccc2C1)c1ccc2c(c1)NC(=O)C1(CC1)O2` [Compound 7], for which, in data set [1] (setting [3]), the “Clearance rate CL” value is 17.7 mL/min/kg, the “Concentration integral AUC” value stood at 2.313 µM·h and the “Half-life T1/2” value is 82.8 min. For the same compound, in data set [1] (oral administration (5 mg/kg)), the “Bioavailability F” value amounted to 64.2% and the “Concentration integral AUC” value turned out to be 7.419 µM·h. The IC50 in data set [2] was determined as 73 nM.
In data set [1] (1 mg/kg), `O=C(NC[C@H](O)CN1CCc2ccccc2C1)c1ccc2c(c1)NC(=O)C1(CN(CC(F)(F)F)C1)O2` [Compound 10] had an AUC of 0.785 µM·h, a clearance of 42.1 mL/min/kg and a half-life of 33 min. Moreover, in data set [1] (po, 5 mg/kg), the AUC came to 0.572 µM·h and the bioavailability worked out at 14.6%. In data set [2] (Homo sapiens, Z-138, 144 h), the IC50 worked out at 23 nM.
Consider `CC(=O)N1CC2(C1)Oc1ccc(C(=O)NC[C@H](O)CN3CCc4ccccc4C3)cc1NC2=O` [Compound 11], for which the IC50 in data set [2] (Homo sapiens, Z-138, 144 h) worked out at 88 nM.
Same read-out and setting: with `COCCN1CC2(C1)Oc1ccc(C(=O)NC[C@H](O)CN3CCc4ccccc4C3)cc1NC2=O` [Compound 13] the figure was 47 nM; with `CS(=O)(=O)N1CC2(C1)Oc1ccc(C(=O)NC[C@H](O)CN3CCc4ccccc4C3)cc1NC2=O` [Compound 14], 14 nM.
Turning to `O=C(NC[C@H](O)CN1CCc2ccccc2C1)c1cc2c(nn1)OC1(CC1)C(=O)N2` [Compound 16], in data set [2], the IC50 was 90 nM.
For `O=C(NC[C@H](O)CN1CCc2ccccc2C1)c1ccc2c(c1)NC(=O)C1(CC(O)C1)O2` (stereo partly shown) [Compound 18], in data set [1] (1 mg/kg), the AUC was determined as 0.545 µM·h, the clearance is 71.3 mL/min/kg and the half-life was 24.6 min. For the same compound, in data set [1] (po, 5 mg/kg), the AUC came to 0.164 µM·h and the bioavailability came out at 6.02%. The IC50 in data set [2] (Homo sapiens, Z-138, 144 h) was 18 nM.
As for `CCOC1CC2(C1)Oc1ccc(C(=O)NC[C@H](O)CN3CCc4ccccc4C3)cc1NC2=O` (stereo partly shown) [Compound 21], the IC50 in data set [2] (Homo sapiens, Z-138, 144 h) was determined as 18 nM.
Regarding `CCOC1CC2(C1)Oc1ccc(C(=O)NC[C@H](O)CN3CCc4ccccc4C3)cc1NC2=O` (stereo partly shown) [Compound 22], the IC50 in data set [2] turned out to be 12 nM.
For the compound `COCCOC1CC2(C1)Oc1ccc(C(=O)NC[C@H](O)CN3CCc4ccccc4C3)cc1NC2=O` (stereo partly shown) [Compound 23], the IC50 in data set [2] (Homo sapiens, Z-138, 144 h) amounted to 23 nM; against PRMT5 enzyme, 18 nM.
As to `COCCOC1CC2(C1)Oc1ccc(C(=O)NC[C@H](O)CN3CCc4ccccc4C3)cc1NC2=O` (stereo partly shown) [Compound 24], the IC50 in data set [2] is 22 nM; at PRMT5 enzyme, 15 nM.
With `CC(C)OC1CC2(C1)Oc1ccc(C(=O)NC[C@H](O)CN3CCc4ccccc4C3)cc1NC2=O` (stereo partly shown) [Compound 26], in data set [2] (Homo sapiens, Z-138, 144 h), the IC50 stood at 22 nM.
Still for that read-out and setting: with `O=C1CC2(C1)Oc1ccc(C(=O)NC[C@H](O)CN3CCc4ccccc4C3)cc1NC2=O` [Compound 27] the figure was 4 nM; with `O=C(NC[C@H](O)CN1CCc2ccccc2C1)c1ccc2c(c1)NC(=O)C1(CC(F)(F)C1)O2` [Compound 28], 10 nM.
For `O=C(NC[C@H](O)CN1CCc2ccccc2C1)c1cc2c(cc1F)OC1(CC1)C(=O)N2` [Compound 32], the IC50 in data set [2] (Homo sapiens, Z-138, 144 h) came to 19 nM.
Turning to `O=C(NC[C@H](O)CN1CCc2ccccc2C1)c1ccc2c(c1)NC(=O)C1(CSC1)O2` [Compound 38], the IC50 in data set [2] (Homo sapiens, Z-138, 144 h) came to 18 nM.
For `O=C(NC[C@H](O)CN1CCc2ccccc2C1)c1cnc2c(c1)NC(=O)C21CC1` [Compound 42], in data set [2], the IC50 was determined as 53 nM.

For orientation: IC50 means the concentration that inhibits the measured activity by half. In general, AUC refers to the area under the concentration-time curve, a measure of exposure. Lower therefore signals low exposure. A word on the clearance: it is a measure of how efficiently the substance is removed, as volume per time. Read a high clearance as a high capacity for elimination. What is called half-life is how long it takes for the measured level to halve. The bioavailability is the share of a dose that reaches the circulation, judged against a reference dose that is usually intravenous.
